Assay results reported in patent US7332602B2, “Pyridyl substituted heterocycles useful for treating or preventing HCV infection” (Rigel Pharmaceuticals, Inc., priority 2002, dated 2008).
Read-outs that look alike come from different tables or passages of the source.

How the values were obtained:
[1] = test system: HCV replicon (5-2 Luc replicon-comprising cells); experiment: HCV replicon assay (luciferase reporter); assay type: cell-based, Hepatitis C virus; conditions: first symbol of the Replicon/Western cell, 5-2 Luc replicon cells, 24 hours with compound, read-out: Replicon (IC50, 50% reduction in luciferase emission)
Description: The inhibitory activity of certain exemplary compounds of the invention was confirmed using an HCV replicon assay. The HCV replicon can include such features as the HCV IRES, the HCV 3′ untranslated region, selected HCV genes encoding HCV polypeptides, selectable markers, and a reporter gene such as luciferase, GEP, etc. In the assay, actively dividing 5-2 Luc replicon-comprising cells were seeded at a density of between about 5,000 and 7,500 cells/well onto 96 well plates (about 90 μl of cells per well) and incubated at 37° C. and 5% CO2 for 24 hours. Then, the test compound (in a volume of about 10 μl) was added at various concentrations to each well and the cells were incubated for an additional 24 hours before luciferase assay. The cells were harvested, and HCV replication or translation was monitored via a reporter assay, e.g., a luciferase reporter assay. The media was aspirated from each cell and Bright-Glo ([…].) luciferase assay reagents were added to each well according to the manufacturer's instructions. In this assay, the amount of test compound that yielded a 50% reduction in luciferase emission (IC50) was determined.

[2] = test system: HCV proteins (HCV replication); experiment: quantitative Western blot analysis with antibodies specific for certain HCV proteins; assay type: cell-based, Hepatitis C virus; conditions: second symbol of the Replicon/Western cell, read-out: Western (IC50, 50% reduction in the amount of the specified HCV protein)
Description: Certain exemplary compounds of the invention were also tested for their ability to inhibit HCV replication using a quantitative Western blot analysis with antibodies specific for certain HCV proteins. In this assay, the amount of test compound that yielded a 50% reduction in the amount of the specified HCV protein as compared to a control sample (IC50) was determined.

[3] = cytotoxicity assay (Cell Titer Glo); assay type: cell-based; conditions: human; 48 hr with compound, ATP-dependent Cell Titer Glo; read-out: IC50 (cytotoxicity, number of viable cells)
Description: Compounds 1, 3, 7, 9, 11, 13, 17, 19, 21, 27, 29, 31, 33, 35, 37, 39, 47, 49, 51, 57 and 69 were tested in a cytotoxicity assay with liver cells including an HCV replicon (5-2 Luc cells, 9-13 cells or Huh-7 cells). In the assay, cells were seeded onto 96-well plates (approx. 7500 cells/well in a volume of 90 μl) and grown for 24 hr at 37° C. On day 2, various concentrations of test compound (in a volume of 10 μl) were added to the wells and the cells were grown for an additional 48 hr at 37° C. On day 4, an ATP-dependent R-Luciferase assay (Cell Titer Glo assay) was performed to determine the number of viable cells.

Compound | IC50 [1] [µM] | IC50 ([1]; Hepatitis C virus) [µM] | IC50 at 48 h [3] [µM] | other results
2,2-Dichloro-N-[5-[3-[2-chloro-6-[4-(N-tert-butoxycarbonyl)piperazino]phenyl])-5-isoxazolyl]-(3-pyridyl)] Acetamide [Compound 71] | < 10 | – | – | –
O=C(Nc1ccnc(-c2cc(-c3c(Cl)cccc3N3CCN(c4ccccn4)CC3)no2)c1)C(Cl)Cl [Compound 53] | – | < 10 | – | IC50 ([2]; Hepatitis C virus): < 10 µM
O=C(Nc1ccnc(-c2cc(-c3c(O)cccc3Cl)no2)c1)C(Cl)Cl [Compound 89, 2,2-Dichloro-N-[2-[3-(2-chloro-6-hydioxyphenyl)-5-isoxazolyl]-(4-pyridyl)] Acetamide] | < 10 | – | – | –
O=C(Nc1cncc(-c2cc(-c3c(F)cccc3C(F)(F)F)no2)c1)C(Cl)Cl [Compound 37, 2,2-Dichloro-N-[5-[3-(2-fluoro-6-trifluoromethylphenyl)-5-isoxazolyl]-(3-pyridyl)] Acetamide] | – | > 10 | ≥ 10 | –
Cc1cccc(C)c1-c1cc(-c2cncc(NC(=O)C(Cl)Cl)c2)on1 [Compound 21, 2,2-Dichloro-N-[5-[3-(2,6-dimethylphenyl)-5-isoxazolyl]-(3-pyridyl)] Acetamide] | – | < 10 | ≥ 10 | IC50 ([2]; Hepatitis C virus): > 10 µM
COc1cccc(F)c1-c1cc(-c2cc(NC(=O)C(Cl)Cl)ccn2)on1 [Compound 39] | – | – | ≥ 10 | –
O=C(Nc1ccnc(-c2cc(-c3c(F)cccc3S(=O)(=O)NN3CCOCC3)no2)c1)C(Cl)Cl [Compound 47] | < 10 | – | – | –
O=C(Nc1cncc(-c2cc(-c3c(Cl)cccc3N3CCNCC3)no2)c1)C(Cl)Cl [Compound 73, 2,2-Dichloro-N-[5-[.3-(2-chloro-6-piperazinophenyl)-5-isoxazolyl]-(3-pyridyl)] Acetamide] | < 10 | – | – | –
CC(C)(C)[Si](C)(C)Oc1cccc(Cl)c1-c1cc(-c2cncc(NC(=O)C(Cl)Cl)c2)on1 [Compound 75, 2,2-Dichloro-N-[5-[3-(2-chloro-6-tert-butyldimethylsilyloxyphenyl)-5-isoxazolyl]-(3-pyridyl)] Acetamide] | < 10 | – | – | –
O=C(Nc1ccnc(-c2cc(-c3c(F)cccc3C(F)(F)F)no2)c1)C(Cl)Cl [Compound 3, 2,2-Dichloro-N-[2-[3-(2-fluoro-6-trifluoromethylphenyl)-5-isoxazolyl]-(4-pyridyl)] Acetamide] | – | < 10 | ≥ 10 | IC50 ([2]; Hepatitis C virus): < 10 µM
CC(C)(C)[Si](C)(C)Oc1cccc(Cl)c1-c1cc(-c2cc(NC(=O)C(Cl)Cl)ccn2)on1 [Compound 83, 2,2-Dichloro-N-[2-[3-(2-chloro-6-tert-butyldimethylsilyloxyphenyl)-5-isoxazolyl]-(4-pyridyl)] Acetamide] | < 10 | – | – | –
O=C(Nc1cc[n+]([O-])c(-c2cc(-c3c(Cl)cccc3Cl)no2)c1)C(Cl)Cl [Compound 43] | – | > 10 | – | –
O=C(Nc1cncc(-c2cc(-c3c(O)cccc3Cl)no2)c1)C(Cl)Cl [Compound 77, 2,2-Dichloro-N-[5-[3-(2-chloro-6-hydroxyphenyl)-5-isoxazolyl]-(3-pyridyl)] Acetamide] | < 10 | – | – | –
2,2-Dichloro-N-[5-[3-[2-chloro-6-[4-(N-2-pyridyl)pipera phenyl])5-isoxazolyl]-(3-pyridyl)] Acetamide [Compound 69] | < 10 | – | – | –
CCNC(=O)Oc1cccc(Cl)c1-c1cc(-c2cncc(NC(=O)C(Cl)Cl)c2)on1 [Compound 79, 2,2-Dichloro-N-[5-[3-(2-chloro-6-N-ethylcarbamoyloxyphenyl)-5-isoxazolyl]-(3-pyridyl)] Acetamide] | < 10 | – | – | –
CN(C(=O)C(Cl)Cl)c1ccnc(-c2cc(-c3c(Cl)cccc3Cl)no2)c1 [Compound 51, 2,2-Dichloro-N-[2-[3-(2,6-dichlorophenyl)-5-isoxazolyl]-(4-pyridyl)]-N-methyl Acetamide] | – | < 10 | ≥ 10 | –
2,2-Dichloro-N-[5-[3-[2-chloro-6-[4-(N-ethylcarboxamido)piperazino]phenyl])-5-isoxazolyl]-(3-pyridyl)] Acetamide [Compound 81] | < 10 | – | – | –
O=C(Nc1cccc(-c2cc(-c3c(Cl)ccnc3Cl)no2)c1)C(Cl)Cl [Compound 93, 2,2-Dichloro-N-[3-[3-[(2,4-dichloro)-3-pyridy]-5-isoxazolyl]phenyl] Acetamide] | < 10 | – | – | –

Compound | IC50 [1] [µM] | IC50 ([1]; Hepatitis C virus) [µM] | IC50 at 48 h [3] [µM] | other results
O=C(Nc1cccc(-c2cc(-c3c(Cl)cccc3Cl)no2)n1)C(Cl)Cl [Compound 35, 2,2-Dichloro-N[6-[3-(2,6-dichlorophenyl)-5-isoxazolyl]-(2-pyridyl)] Acetamide] | – | > 10 | ≥ 10 | –
O=C(Nc1ccnc(-c2cc(-c3c(N4CCOCC4)cccc3C(F)(F)F)no2)c1)C(Cl)Cl [Compound 31, 2,2-Dichloro-N-[2-[3-(2-morpholino-6-trifluoromethylphenyl)-5-isoxazolyl]-(4-pyridyl)] Acetamide] | – | < 10 | ≥ 10 | –
Cc1cccc(C)c1-c1cc(-c2cc(NC(=O)C(Cl)Cl)ccn2)on1 [Compound 19, 2,2-Dichloro-N-[2-[3-(2,6-dimethylphenyl)-5-isoxazolyl]-(4-pyridyl)] Acetamide] | – | < 10 | > 5 | –
O=C(Nc1cncc(-c2cc(-c3ccccc3C(F)(F)F)no2)c1)C(Cl)Cl [Compound 67, 2,2-Dichloro-N-[5-[3-(2-trifluoromethylphenyl)-5-isoxazolyl]-(3-pyridyl)] Acetamide] | > 10 | – | – | –
Cc1cccnc1-c1cc(-c2cccc(NC(=O)C(Cl)Cl)c2)on1 [Compound 33, 2,2-Dichloro-N-[3-[3-(3-methyl-2-pyridyl)-5-isoxazolyl]phenyl] Acetamide] | – | < 10 | ≥ 10 | –
O=C(Nc1cccc(-c2cc(-c3cc(Cl)nc(Cl)c3)no2)c1)C(Cl)Cl [Compound 11, 2,2-Dichloro-N-[3-[3-[(2,6-dichloro)-4-pyridyl]-5-isoxazolyl]phenyl] Acetamide] | > 10 | – | – | IC50 [2]: < 10 µM
COc1cccc(F)c1-c1cc(-c2cc(NC(=O)C(Cl)Cl)ccn2)on1 [Compound 5, 2,2-Dichloro-N-[2-[3-(2-fluoro-6-methoxyphenyl)-5-isoxazolyl]-(4-pyridyl)] Acetamide] | – | > 10 | – | IC50 ([2]; Hepatitis C virus): < 10 µM
COCOc1cccc(Cl)c1-c1cc(-c2cc(NC(=O)C(Cl)Cl)ccn2)on1 [Compound 87] | < 10 | – | – | –
O=C(Nc1cncc(-c2cc(-c3cccc(Cl)c3Cl)no2)c1)C(Cl)Cl [Compound 29, 2,2-Dichloro-N-[5-[3-(2,3-dichloroplhenyl)-5-isoxazolyl]-(3-pyridyl)] Acetamide] | – | < 10 | ≥ 10 | –
O=C(Nc1ccc(-c2cc(-c3c(Cl)cccc3Cl)no2)cn1)C(Cl)Cl [Compound 65, 2,2-Dichloro-N-[5-[3-(2,6-dichlorophenyl)-5-isoxazolyl]-(2-pyridyl)] Acetamide] | > 10 | – | – | –
CCN1CCN(c2cccc(Cl)c2-c2cc(-c3cncc(NC(=O)C(Cl)Cl)c3)on2)CC1 [Compound 63] | – | < 10 | – | –
CCCNC(=O)Oc1cccc(Cl)c1-c1cc(-c2cc(NC(=O)C(Cl)Cl)ccn2)on1 [Compound 85] | < 10 | – | – | –
CCOC(=O)c1cccnc1-c1cc(-c2cccc(NC(=O)C(Cl)Cl)c2)on1 [Compound 45, 2,2-Dichloro-N-[3-[3-[(3-ethoxycarbonyl)-2-pyridyl]-5-isoxazolyl]phenyl] Acetamide] | – | > 10 | – | –
O=C(Nc1ccncc1-c1cc(-c2cccc(Br)n2)no1)C(Cl)Cl [Compound 97, 2,2-Dichloro-N-[3-[3-[(6-bromo)-2-pyridyl]-5-isoxazolyl]-(4-pyridyl)] Acetamide] | > 10 | – | – | –
CN(C)c1nccc(Cl)c1-c1cc(-c2cccc(NC(=O)C(Cl)Cl)c2)on1 [Compound 91, 2,2-Dichloro-N-[3-[3-[(4-chloro-2-dimethylamino)-3-pyridyl]-5-isoxazolyl]phenyl] Acetamide] | < 10 | – | – | –
2,2-Dichloro-N-[5-[3-[2-chloro-6-[4-(N-acetyl)piperazino]phenyl])-5-isoxazoly]-(3-pyridyl)] Acetamide [Compound 61] | < 10 | – | – | –
O=C(Nc1ccnc(-c2cc(-c3c(F)cccc3Cl)no2)c1)C(Cl)Cl [Compound 1, 2,2-Dichloro-N-[2-[3-(2-chloro-6-fluorophenyl)-5-isoxazolyl]-(4-pyridyl)] Acetamide] | – | < 10 | ≥ 10 | –
